The Kd is the concentration at which binding is half-saturated. Usually GI50 stands for the concentration that inhibits growth by half. The term ΔTm denotes the shift of the melting midpoint relative to a reference.

In data set [1] the test system is WDR5-target genes. As to the kind of experiment: RT-qPCR of WDR5-target genes in frozen DI318 flank tumor samples. It counts as in vivo, NSG mice. Conditions: 30 mg/kg once a day i.p. over 7 days. (Real-time PCR tracks product formation cycle by cycle.)
Data set [2] addresses WDR5 (Homo sapiens, UniProt P61964). Description: WDR5 live cell CETSA in intact L0 CSCs (melting curve, isothermal Kd, washout). It counts as cell-based. The arrangement: we first used a cellular thermal shift (CETSA) assay in intact L0 CSCs; endogenous in cells; host or cells: L0 patient-derived GBM CSCs. Here is the method:
In total, 500,000 L0 CSCs, grown in suspension as spheroids, were split with Accutase and seeded in 1 mL of NBMc into each well of a 24-well dish. […] Cells were harvested by centrifugation (5 minutes, 500g) into SafeLock tubes (Eppendorf), washed once with 400 μL of PBS, and resuspended in 25 μL of CETSA Buffer (PBS + 1X Roche cOmplete Protease Inhibitor Cocktail + 3X Benzonase). […] One DMSO-treated sample was left unheated (representing 100% abundance i.e., fully bound) and 1 DMSO-treated sample was heated to 70°C (representing 0% abundance i.e., fully unbound). After heating, samples were lysed by 6X freeze-thaw cycles in LN2/hot water, rested for 10 minutes at room temperature, and then centrifuged for 30 minutes at > 14,000g at 4°C. 20 μL of the supernatant was transferred to a fresh tube into 5 μL of SDS-PAGE Loading Dye, boiled, and separated on 4%–20% Mini-PROTEAN Precast TGX Gels (Biorad). […] For CETSA washout experiments, a 10 cm dish with 6 × 10^6 to 8 × 10^6 L0 cells was treated for 2 hours with 5 μM compound or DMSO, washed 3 times with 15 mL of PBS (3 min, 400g), and split into 10 × 1 mL of fresh NBMc in a 24-well dish.

Data set [3] is described as follows: Brain homogenate binding. It counts as in vitro ADME. As to conditions: human brain homogenate; read-out: BHB %fu (h). As for the experimental part:
both the protein side and buffer side of the membrane after incubation and the parent compound was quantified. Brain homogenate binding was performed similarly as above using human brain homogenate, equilibrium dialysis, and LC-MS/MS methods. Fraction unbound is calculated by dividing the concentration of the buffer side by the concentration of the matrix side (plasma or brain). […]

For data set [4], the system named is DI318 CSCs. As to the kind of experiment: Extreme limiting dilution assay (ELDA) in DI318. It counts as cell-based, human. Conditions: 14 days. As for the experimental part:
L0 and DI318 CSCs were split with Accutase as single cells into NBMc. In total, 200 μL of CSCs were seeded into each well of a 96-well TC treated plate (n = 10 well per density) at 50, 25, 13, 6, 3, and 1.5 cells/well. […] The stem cell frequency was quantified and treatments were compared with DMSO as described by Hu and Smyth ([98]).

Data set [5] relates to WIN-site dependent transcripts. Description: Bulk RNA-seq in L0 and DI318 CSCs. The class given is cell-based, human. Conditions: for GSEA NES against MV4:11 C16-regulated gene set: 72 hours. Here is the method:
Bulk RNA-seq was performed at MedGenome Inc. using the Illumina Stranded mRNA Library Prep Kit and sequencing at 20M paired-end read-depth on a NovaSeq 6000 (PE100). The raw bulk RNA-seq paired end (R1-R2, 2 × 100 bp) sequencing fastq data was first subjected to the quality check analysis using FastQC (v0.11.9). […] Further, quality filtered reads were subjected to the alignment employing Rsubread (v2.16.1) align function with human genome reference build GRCh38 ([90], [91]). The mapped binary alignment map (BAM) files were indexed using samtools (v1.16.1) ([92]), and gene-wise read counts were summarized applying featureCounts function from Rsubread, where inbuilt hg38 annotation was used and duplicated reads were ignored. Furthermore, gene symbols were obtained using org.Hs.eg.db (v3.15.0) annotation package operating on ENTREZIDs from count table. Respectively, edgeR (v3.38.4) and limma-voom (v3.52.4) packages were employed to accomplish differential transcriptional regulation analysis ([93]–[95]). Briefly, constructed DGEList object (DGEList function), design matrix (model.design), and contrast matrix (makeContrasts) was defined, filtered low counts (filterByExpr), and trimmed mean of M-values (TMM) normalization (calcNormFactors) was done. Later, log2 counts per million reads (logCPM) transformation, model fitting and differential expression analysis was performed using limma-voom (voomWithQualityWeights, lmFit, contrasts.fit), empirical Bayes moderated t-statistics (eBayes), and TREAT method (treat, decideTests, topTreat) considering log fold-change (logFC) (0.5) threshold. Genes with |log2FC| > 0.5 and FDR adjusted P value cutoff (≤0.01) were considered as differentially expressed genes (DEGs). Gene ontology (GO) and pathway enrichment analysis was accomplished implementing ShinyGO (v0.77) ([96]). DEGs volcano plots were depicted utilizing EnhancedVolcano (v1.16.0) package.

The subject of data set [6] is 5 different CSC models. Description: 7-day CTG viability / cross-titration, panel of 5 CSC models. It counts as cell-based, human. As to conditions: Homo sapiens; 7-day assay, 5 CSC models. As for the experimental part: For GI50 determination, compounds were stamped in technical triplicate, while for synergy cross-titrations dose-response matrices were prepared in technical duplicate. Different CSC lines, grown in suspension as spheroids, were split with Accutase and seeded directly on top of the prestamped compounds (50 μL of NBMc and 700 cells/well). The outer 4 rows (A,B and O,P row IDs) and 4 columns (1,2 and 23,24 column IDs) were filled with 80 μL of PBS to minimize evaporation. Cells were incubated with compounds for 7 days at 37°C/5% CO2 prior to the addition of 25 μL/well Cell-Titer Glo (Promega) and luminescence quantification on a Revvity EnVision plate reader. […] For the cross-titrations of 2 compounds, synergy scores were calculated using the MuSyC webserver ([79]).

Data set [7] has as its system intracranial L0 PDX tumors. Description: Long-term intracranial L0 xenograft. Conditions: 30 mg/kg once a day i.p. It counts as in vivo. Here is the method:
Briefly, L0 cells were intracranial injected into 6–12 week old NSG mice. Once fully anesthetized, mice were secured into a stereotaxic apparatus and 20,000 L0 Cells were injected into the left hemisphere 0.5 mm rostral and 1.8 mm lateral to the b4regma with 3.5 mm depth from the scalp. […] Animals were monitored over time for the presentation of neurological and behavioral symptoms at which time the animals were humanely euthanized. Survival analysis was completed using PRISM 9.1.2 and comparison were made using Log-Rank (Mantel-Cox) test.

The nature of data set [8]: Plasma protein binding (equilibrium dialysis), rat. As to conditions: read-out: PPB % fu (r). The class given is in vitro ADME. As for the experimental part:
both the protein side and buffer side of the membrane after incubation and the parent
compound was quantified. […]
On the technique in general: Equilibrium dialysis compares concentrations on both sides of a semipermeable membrane.

The test system of data set [9] is MV4:11. As to conditions: read-out: MV4:11 GI50; cited from earlier work.

As to `COc1cc(Cn2nnc3c2CCc2c(-c4cn(C)nc4C(F)(F)F)cc(Cn4ccnc4C)cc2-3)cc(OC)c1` [C3TD078], the “downregulation of WDR5-target genes in treated tumors” value in [1] is recorded as “did not downregulate WDR5-target genes in treated tumors”. Also, the “time remaining bound to WDR5 after washout” value in data set [2] (L0 CSCs, 5 μM for 2 hours, then washout) was “at least 21 hours”. For the same compound, the Kd in data set [2] (L0 CSCs, 2-hour pretreatment, isothermal 70°C) amounted to 2 nM. Besides, in data set [3], the fraction unbound at […] worked out at 0.004. Moreover, the “DI318 ELDA stem cell frequency (1 in N)” value in data set [4] (20 nM) is reported as 1.6; in [4] (200 nM), 2.1; in data set [4] (2000 nM) it was 2.2. Moreover, the “C16 DEGs also downregulated by C3TD078” value is 79% in data set [5] (DI318, 200 nM, 72 hours (118/150)) and 89% in data set [5] (L0, 200 nM, 72 hours (91/102)). Moreover, in [6], the GI50 fell in the range of 1000 to 5000 nM.

On to `COc1cc(Cn2nnc3c2CCc2c-3cc(Cn3ccnc3C)cc2C2CC2)ccc1F` [C3TD343], for which the fraction unbound at […] in [3] was 0.005; in data set [8] it was 0.027. Besides, the effect on survival result in data set [7] is reported as “no effect on survival”. In data set [7] (up to 71 days), the tolerability entry is reported as “well tolerated”. In addition, in [7] (vehicle 72 days), the “survival in L0 Intracranial Xenograft (Kaplan-Meier)” value worked out at 71 days.

As to `COc1cc(CN2CCc3c(cc(Cn4ccn(C)c4=N)cc3-c3ccc(F)cc3C)C2=O)cc(OC)c1` [C16, reference compound], the ΔTm at 10 µM in data set [2] (L0 cells, 10 μM, 2 hours) was found to be 35 °C. In data set [8], the fraction unbound at […] was determined as 0.008. Further, the “GSEA NES against MV4:11 C16-regulated gene set” value in data set [5] (DI318, 200 nM) was “–2.5”; in data set [5] (L0, 200 nM), “–2.0”. The GI50 in [9] is 38 nM; in [6], 1000 to 5000 nM.

These data come from article PMC13313556, “Development and characterization of triazole-based WDR5 inhibitors for the treatment of glioblastoma” (JCI Insight, 2026).
